Source: the supplement of paper PMC10307832

Assays:
Experiment in all cases: relative viability (nuclei count vs DMSO), 5 days (fraction); higher = more cells survive
[1] = compound: CC1=CC=C(C=C1)C(=O)CN2C3=C(CCCC3)SC2=N [Pifithrin_alpha]
Procedure, shortened: (§1)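 Hoechst staining, done together with fixation and permeabilisation, marked nuclei for 4× imaging and MetaXpress counting. This followed 5 days without medium change after lung cancer cell lines, kept overnight at 37 °C in 1536-well plates, were pinned with five library-drug doses (not always all listed) spaced by √10 on vehicle-anchored plates. Viability is the ratio of treated-well to vehicle-well nuclei, expressed as a median across plates. Plates passed only at control CV below 25% with at least one doubling.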

[2] = compound: Nc1nc(Nc2ccc3c(c2)CC[C@@H](N2CCCC2)CC3)nn1-c1cc2c(nn1)-c1ccccc1CCC2 [Bemcentinib]
Procedure, shortened: as §1

[3] = compound: CNC(=O)c1ccccc1Sc1ccc2c(/C=C/c3ccccn3)n[nH]c2c1 [Axitinib]
Procedure, shortened: as §1

[4] = compound: CC1=CC=C(C=C1)C(=O)CN2C3=C(CCCC3)SC2=N [Pifithrin_alpha] + Cc1nc(NC(=O)N2CCC[C@H]2C(N)=O)sc1-c1ccnc(C(C)(C)C(F)(F)F)c1 [Alpelisib] (partner 2 µM)
Procedure, shortened: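 Nuclei were stained with Hoechst during a one-step fixation (final 0.05% Triton X-100, 1% formaldehyde, 1 ug/ml Hoechst) carried out 5 days after dosing, then counted on 4× images. The cells, lung cancer lines in 1536-well plates, had been dosed by pin tool the day after seeding with one drug alone or a fixed anchor-drug dose plus five library-drug doses (not always all listed) in √10 steps. Relative viability is the nuclei count in treated wells divided by that in vehicle wells, and each value is the median of duplicate plates.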

Cell Line	relative viability ([1]; 1 µM)	relative viability ([1]; 3.162 µM)	relative viability ([1]; 10 µM)	relative viability ([1]; 31.62 µM)	relative viability ([1]; 100 µM)	relative viability ([2]; 0.04 µM)	relative viability ([2]; 0.1265 µM)	relative viability ([2]; 0.4 µM)	relative viability ([2]; 1.265 µM)	relative viability ([2]; 4 µM)	relative viability ([3]; 0.005 µM)	relative viability ([3]; 0.01581 µM)	relative viability ([3]; 0.05 µM)	relative viability ([3]; 0.1581 µM)	relative viability ([3]; 0.5 µM)	relative viability ([4]; first compound 1 µM)	relative viability ([4]; first compound 3.162 µM)	relative viability ([4]; first compound 10 µM)	relative viability ([4]; first compound 31.62 µM)	relative viability ([4]; first compound 100 µM)
SK-MES-1	0.893	0.927	0.901	0.726	0.815	1.03	1.09	1.07	1.11	1.11	1.03	0.998	1.01	0.976	1.06	0.882	0.955	0.851	0.626	0.775
NCI-H2170	0.989	1.04	0.875	0.948	0.962	1.09	1.09	0.991	0.999	0.899	1.1	0.975	1.01	0.974	1	0.799	0.821	0.756	0.537	0.744
NCI-H441	1.08	1.21	1.03	0.721	1.23	1.01	1.23	1.04	0.915	1.26	1.07	1.07	1.11	1.22	1.1	0.942	0.859	0.673	0.708	0.85
NCI-H2087	0.932	1.13	1.02	0.63	0.958	1.12	1.2	1.07	0.969	1.03	0.939	1.09	0.996	1.02	0.986	1.05	1.04	0.862	0.671	0.884
RERF-LC-KJ	0.873	0.935	0.858	0.81	0.795	1.07	1.04	1.11	1.07	1.06	1.07	0.991	1.01	0.984	1.04	0.983	0.791	0.807	0.707	0.682
NCI-H1437	1.02	1.05	0.953	0.827	0.793	0.925	1.01	1.03	0.965	0.969	1.05	0.991	0.961	0.983	1.01	1.12	1.01	0.933	0.749	0.989
NCI-H1651	1.03	0.998	0.944	0.871	0.944	1.04	1.06	1.08	1.01	1.01	0.973	0.89	0.963	0.951	1	0.884	0.933	0.908	0.685	0.989
PC-14	0.866	1.02	0.949	0.625	0.842	1.02	1.15	1.1	1.02	1.02	1.05	0.808	1.09	0.951	1.13	0.952	0.953	0.975	0.771	0.848
